Experimental findings from US20250059264A1, “METHOD OF TREATING STROKE” (AlaMab Therapeutics, Inc., priority 2023, published 2025) are described below.

For data set [1], the system named is rat model of stroke induced by middle cerebral artery occlusion (MCAO). Briefly: Cerebral infarct volume by TTC staining, dosing regimen (Example 4). The settings on record: 10 mg/kg (table label) i.v. Bid from 30 min after infarction, 14-days post-operation. In kind it is in vivo, SD rats. Here is the method:
(§1) The first administration of the respective treatments was started 30 minutes (Day 1 of study) after the MCAO procedure of the rats. For the butylphthalide group, subsequent doses were administered every day after for 14 days. For the ALMB-0166 test groups, a second dose of the antibody was administered at Day 4 post-stroke (Day 4 of the study). Thirty-six (36) SD rats received behavioral training after adaptive feeding period and before the operation to establish stroke models. The behavioral training included beam-walking, grip and rotarod tests. The experimental rats were then randomly divided into 6 groups according to the body weight, with 6 rats in each test group as described in Table 15. The rats were fasted overnight before modeling and were anesthetized with isoflurane. […] The body weight of rats was recorded before the operation (Day 0 of study) and on Days 2, 4, 7, and 11 after the procedure. The rats were scored by the Longa method at Day 1 (24-hours) post-procedure. The neurological function was evaluated at Days 1, 2, 4, 7, and 14 after the procedure, and was assessed by beam-walking, grip strength, and rotarod tests. […] The total infarct volume was determined, and the infarct volume ratio was calculated by dividing the total infarct volume by the whole brain volume. […]

In data set [2] the test system is mouse model of stroke induced by middle cerebral artery occlusion (MCAO). Briefly: Beam-walking test (Example 1). Format: in vivo, ICR mice. The settings on record: 10 mg/kg i.v. Bid from 30 min after infarction. As to the method: (§2) The administration of the respective treatments was started 30 minutes after the MCAO procedure of the mice.
(§3) Seventy-two (72) ICR mice received behavioral training after adaptive feeding period and before the operation to establish stroke models. The behavioral training included beam-walking and rotarod test. The experimental mice were then randomly divided into 6 groups according to the values of the body weight, with 12 mice in each test group as described in Table 1.
(§4) The mice were fasted overnight before modeling and were anesthetized with isoflurane. Right middle cerebral artery occlusion (MCAO) was induced in mice using the intraluminal filament technique to mimic focal cerebral ischemic stroke. After 1 hr, reperfusion was allowed by removing the occlusion. During the operation, a white light was used to maintain the mouse rectal temperature between 36.5° C.-37.0° C.
(§5) Administration of each treatment was performed 0.5 h after the infarction. The neurological function score was evaluated at 24 hrs and 48 hrs after reperfusion, as was assessed by beam-walking, grip strength, and rotarod tests. At 48 h after reperfusion, the whole brain tissue of all rats was harvested to assess the cerebral infarct area by TTC staining, as well as to measure brain volume and brain water content, two indicators of acute cerebral edema.

Data set [3] concerns rat model of stroke induced by middle cerebral artery occlusion (MCAO). Also on record: species or system SD rats. Particulars: in vivo. Here is the method:
as §1

Data set [4] has as its system mouse model of stroke induced by middle cerebral artery occlusion (MCAO). The experiment in a line: Grip strength (Example 1). In kind it is in vivo, ICR mice. Particulars: 10 mg/kg i.v. Bid from 30 min after infarction. Here is the method:
as §2, §3, §4, §5

`CCCCC1OC(=O)c2ccccc21` (stereo not shown) [Butylphthalide]: the “Cerebral Infarction Volume” value in data set [1] is listed as 15.01%. Besides, the “Improvement rate of infarction” value in data set [1] (vs model) stood at 23.64%. The Beam-walking time is reported as 41.27 ± 21.52 s in data set [2] (24 h) and 41.92 ± 22.83 s in data set [2] (48 h). Also, in data set [3], the “Body weight compared to model test group” value was “No statistically significant difference”. Also, the “Grip Strength” value is given as 206.29 ± 46.55^ g in data set [4] (24 h) and 214.71 ± 34.19 g in data set [4] (48 h).
